Test results taken from patent US4455146A, “Novel plasters” (Hisamitsu Pharmaceutical Co., Ltd., priority 1979, dated 1984).

Experiment: clinical
Conditions: for Percent absorption / Fa at 4 h / Fa at 8 h: human, in vivo, topical or ocular; for Fa at 4 h / Fa at 8 h: Percent absorption
Experimental: An experiment was carried out on 7 subjects who were healthy male adults, 25-39 years old and weighing 50-63 kg each, as mentioned hereinbelow.
The plasters and adhesive tapes so attached to the skin sites were peeled 0 hour, 4 hours and 8 hours after the application and then inserted into 15 ml test tubes, respectively, after which the test tubes were each incorporated with 5 ml of acetone, shaken lightly and allowed to stand overnight at room temperature. […] After the distillation-off of an excess of the diazomethane and ether, the residue so methylated was dissolved in 1 ml of a solution of the internal reference substance in acetone and meansured for absorbability and amount absorbed by means of GC-MF under the conditions as shown in Table 10.
The absorbency and amount absorbed were calculated from the following formulae: [formula]

[1] = 1% plaster, […] 1.4 cm, 4 hr, mean ± S.E.
[2] = 1% plaster, […] 1.4 cm, 8 hr, mean ± S.E.
[3] = 3% plaster, […] 1.4 cm, 4 hr, mean ± S.E.
[4] = 3% plaster, […] 1.4 cm, 8 hr, mean ± S.E.

Row | Amount absorption [1] [µg] | Amount absorption [2] [µg] | Amount absorption [3] [µg] | Amount absorption [4] [µg] | Percent absorption (4 h) [%] | Percent absorption (8 h) [%] | Fa at 4 h [%] | Fa at 8 h [%] | Fa at 4 h [1] [%] | Fa at 8 h [2] [%] | Fa at 4 h [3] [%] | Fa at 8 h [4] [%] | Compound
1 | 9.05 | 10.70 ± 1.61 | 41.19 | 49.56 ± 6.92 | 6.98 | 8.40 ± 1.17 | 5.53 | 6.54 ± 0.99 |  |  |  |  | CC(C(=O)O)c1ccc(-c2ccccc2)c(F)c1 (stereo not shown) [Flurbiprofen]
2 | 2.30 | 4.92 ± 1.16 | 16.67 | 20.21 ± 2.13 |  |  |  |  | 1.27 | 2.71 ± 0.64 | 3.52 | 4.28 ± 0.45 | COc1ccc2c(c1)c(CC(=O)O)c(C)n2C(=O)c1ccc(Cl)cc1 [Indomethacin]
